This is an account of results in patent US8492109B2 (priority 2009, dated 2013).

Molecules are shown by their SMILES.

The test system of series [1] is HEK293 cells.
In series [2] the test system is neuronal cell lines M17, Neuro2a and non-neuronal cell lines HEK293, HIT-T15. Type of series: cell-based.
Series [3] concerns HIT-T15 cells. It counts as cell-based, human.
In series [4] the test system is M17 cells. It counts as cell-based.
Series [5] deals with M17 cells.
Series [6] concerns HIT-T15 cells. Type of series: cell-based, human. The source holds these as a separate data set.
Series [7] deals with primary rat granule cerebellar neurons (RGCN).

On to `CO/C1=C\C(C)=C\[C@@H](C)[C@@H](O)[C@@H](C)C/C(C)=C/C=C/[C@H](OC)[C@@H]([C@@H](C)[C@@H](O)[C@H](C)[C@@]2(O)C[C@@H](O)[C@H](C)[C@@H](C(C)C)O2)OC1=O` [Bafilomycin, Bafilomycin A1], for which, in series [1], the bafilomycin cytotoxicity entry was “particularly susceptible to bafilomycin toxicity”. In addition, in series [2], the “inhibition of BoNT intoxication” value is “clearly inhibited” and the “sensitivity of functional transduction of BoNT Lc to bafilomycin” value is “fully sensitive”. Further, the “inhibition of functional internalization of recombinant BoNT/A Lc” value in series [3] is on record as “inhibited functional internalization”. Further, the “effect on efficiency of plasmid DNA transfection mediated by FuGene (fluorescent protein expression)” value in series [4] was “no inhibitory effect”. Also, the “inhibition of SNAP25 cleavage by BoNT/A holotoxin” value in series [5] is “inhibited SNAP25 cleavage”. Besides, the “effect on efficiency of plasmid DNA transfection mediated by FuGene (fluorescent protein expression)” value in series [6] is on record as “no inhibitory effect”. In series [7], the “SNAP25 cleavage in bafilomycin-treated cells” value is recorded as “a small amount of SNAP25 cleavage was observed”, the “cytotoxicity (visual)” value is on record as “Some cytoxicity” and the “inhibition of BoNT/A intoxication (SNAP25 cleavage)” value is “completely inhibit”.
